Results on three compounds are retold here after patent publication US6875891B2, “Process for preparing highly water soluble double salts of hydroxycitric acid particularly alkali and alkaline earth metal double salts” (Laila Impex, priority 2003, dated 2005).

Data set [1] is described as follows: equilibration between free acid form and lactone form when dissolved in water. Format: physicochemical.
The conditions of data set [2]: background statement; cited from earlier work.
The conditions of data set [3]: background statement on known salts; cited from earlier work.

Regarding “calcium/potassium double salt of hydroxycitric acid [Ca/K double salt]”, the “equilibration between free form and lactone form of hydroxycitric acid” value in data set [1] was “does not equilibrate between the free form and the lactone form”.

With `O=C([O-])C[C@@](O)(C(=O)[O-])[C@H](O)C(=O)[O-].[K+].[K+].[K+]` [tripotassium salt], the hygroscopicity entry in data set [2] is on record as “highly hygroscopic”.

Take `O=C([O-])C[C@@](O)(C(=O)[O-])[C@H](O)C(=O)[O-].O=C([O-])C[C@@](O)(C(=O)[O-])[C@H](O)C(=O)[O-].[Ca+2].[Ca+2].[Ca+2]` [calcium salt, calcium salt of hydroxycitric acid]: the solubility in water entry in data set [3] is “poorly soluble in water”.
